Source: patent publication US5025036A, “Catechol carboxylic acids” (Hoffmann-La Roche Inc., priority 1989, dated 1991)

Key:
[1] = Rat In Vivo Model of Myocardial Ischemia (free radical generator infusion); set-up: species or system male spontaneously hypertensive rats; conditions: for Rat Ischemia Model % Infarction: percent of left ventricle infarcted of the animals with an infarct
Procedure: In this preparation a free radical generating (FRG) system consisting of purine (2.3 mM), xanthine oxidase (0.02 U/ml) and iron loaded transferring (0.6 μM) complex is infused into the carotid artery near the ostium of the coronary artery in spontaneously hypertensive rats. Blood is withdrawn before and 24 hours after the FRG challenge for measuring the isoenzymes of lactic acid dehydrogenase (LDH1 :LDH2). An increase in LDH1 :LDH2 ratio reflects cell damage to the myocardium. The electrocardiogram is also taken before and 24 hours after the FRG infusion. At the end of the experiment the heart is removed, sliced in a breadloaf fashion, and stained with triphenyltetrazolium chloride to determine infarct size. A drug or vehicle is administered intravenously 10-30 minutes before the FRG challenge. A drug is considered active if there is no elevation of the LDH1 :LDH2 ratio, no ECG abnormalities and no histologic evidence of an infarction.
Male spontaneously hypertensive rats (280-320 g) from Taconic Farms, were lightly anesthetized with sodium pentobarbital (30-50 mg/kg, i.p.). […] A catheter of PE 50 tubing was inserted into the right common carotid artery to a position proximal to the ostia of the coronary arteries and used to sample blood and infuse the free radical generator (FRG) system. A second catheter of PE 10 tubing was inserted into the left jugular vein to administer drugs. The infusion system for the FRG consisted of a double syringe infusion pump, Sage Model 351, with one syringe containing xanthine oxidase (0.01 units/ml) in a HEPES (0.05M) buffer and the other syringe containing purine (2.3 mM) plus Fe^3+ loaded transferring (0.06 μM) in a HEPES (0.05M) buffer. The FRG infused separately mixes simultaneously near the ostia of the coronary arteries. This infusion was delivered at a rate of 0.03 ml/minute for a total infusion time of 10 minutes. The drugs were infused over a one minute period in a 0.9% saline vehicle.
Standard Lead II ECG was monitored continuously on a Hewlett-Packard 7758A recorder prior to treatment, throughout the FRG infusion and 10 minutes post infusion. Catheters were removed and animals were allowed to recover and fed standard rat chow and water ad libitum. 24 hours following the FRG infusion, animals were reanesthetized with sodium pentobarbital (30-50 mg/kg, i.p.) and an ECG was obtained. Blood samples were taken prior to and after the FRG infusion and at the conclusion of the experiment. These samples were centrifuged and assayed for total lactate dehydrogenase (LDH) and lactate dehydrogenase isoenzymes (LDH1 :LDH2), using electrophoresis.
The animals were sacrificed, the hearts rapidly excised, and washed free of blood and sectioned. The left ventricle was weighed and stored in a Revco® freezer at -70° C. The left ventricle was sliced into 2 mm-thick rings, incubated in a 1% triphenyltetrazolium chloride solution for 20 minutes, and then fixed in a 10% formalin solution. Infarcted areas were measured and quantitated as a percentage of the total left ventricular volume.

[2] = tested on: myeloperoxidase accumulation (acetic acid-induced colitis); experiment: Acetic Acid-Induced Colitis in Rats, In Vivo; set-up: species or system male rats (Sprague-Dawley)
Description: The rat acetic acid-induced colitis bioassay has been described by J. E. Krawisz, et al. in Amer. J. Proc. Gastro. Col. Rec. Surg. 31: 11-18 (1980), and by P. Sharon and W. F. Stenson in Gastroenterolgy 88: 55-63 (1985) and 86: 453-460 (1984). Acetic acid-induced colitis is characterized by the movement of inflammatory cells into the colon, with the number of such cells in the mucosa being measured by the activity of myeloperoxidase, a marker enzyme for these cells. Positive desirable activity is indicated by a reduction in the high levels of myeloperoxidase caused by acetic acid. Male rats (Sprague-Dawley), weighing 150 to 300 g, were pretreated twice daily for two days with either the vehicle (water, or dimethylsulfoxide) or the test inhibitor compound suspended in water or dissolved in dimethylsulfoxide and orally administered. On the third day, the animals were dosed the same as on the previous two days, anesthetized with metofane, and 2 ml of 2.5% acetic acid was injected by syringe into the colonic lumen, followed immediately by 3 ml of air and a rinse consisting of 3 ml of phosphate-buffered saline (the acetic acid is present in the lumen for a sufficient period to cause inflammation without producing severe necrosis or irreversible damage). The animals were administered a second dose of the test compound in the same amount about 16 hours later. 24 hours after the acetic acid treatment, the animals were sacrificed, the colonic mucosa was surgically removed and homogenized in an aqueous buffer at pH 6 with a Tissumizer or similar device and myeloperoxidase was measured in the homogenate using o-phenylenediamine as a chromagen, as described by A. Voller, D. E. Bidwell and A. Bartlett in The Enzyme Linked Immunosorbent Assay (ELISA), Zoological Soc., London, 1979, pages 29-30. Control animals were pretreated with the vehicle and saline in place of acetic acid.

[3] = tested on: ear edema; experiment: Mouse Ear Edema Test (In Vivo), arachidonic acid; set-up: species or system CD-1 male mice; conditions: topical, 1 h, at 1 mg topically
Description: Invest. Dermatol. 80:48 (1983) and Hames, Opas and Bonney, "Arachidonic Acid Metabolites in Mouse Ear Edema" Advances in Inflammation Research, 11:57 (1986). […] CD-1 male mice weighing 15 to 25 g were employed, and they were designated as follows: (1) Control Group, in which no arachidonic acid or test compound was to be applied, (2) Arachidonic Acid-Treated Group, in which no test compound was to be applied, and (3) Treated Group, in which the test compound was to be applied first, followed by the application of arachidonic acid. In the case of the Group (3) animals, the test compound, dissolved in acetone, was applied to the dorsal surface of the right ear of the mouse with a 25-microliter pipettor, with the dose of the test compound being varied. After 0.5 hours in some cases and 4 hours in others, the arachidonic acid was topically applied in the same manner as above to the pretreated ear areas. In each case of arachidonic acid application, an amount of 0.5 mg dissolved in 25 microliters of acetone was used. After 1 hour, the mice were sacrificed by carbon dioxide inhalation. A 6 mm-diameter standard biopsy punch was used to obtain a uniform tissue sample from the ear of each mouse so treated, and the tissue samples were weighed to the nearest 0.1 mg. The percent inhibition of ear edema formation was calculated as follows: [formula]

SMILES	Rat Ischemia Model Infarcts/Total ([1]; 10 mg/kg iv)	Rat Ischemia Model % Infarction ([1]; 10 mg/kg iv)	Rat Acetic Acid Colitis Model % Inhib. of Myeloperoxidase Accumulation ([2]; 10 mg/kg p.o)	Rat Acetic Acid Colitis Model % Inhib. of Myeloperoxidase Accumulation ([2]; 30 mg/kg p.o)	inhibition in vivo at 1 mg [3]	Rat Acetic Acid Colitis Model % Inhib. of Myeloperoxidase Accumulation ([2]; 1 mg/kg p.o)	Rat Acetic Acid Colitis Model % Inhib. of Myeloperoxidase Accumulation ([2]; 3 mg/kg p.o)	Rat Ischemia Model Infarcts/Total ([1]; 5 mg/kg iv)	Rat Ischemia Model % Infarction ([1]; 5 mg/kg iv)	Rat Acetic Acid Colitis Model % Inhib. of Myeloperoxidase Accumulation ([2]; 100 mg/kg p.o)
CCCc1c(OCCCCc2cccc(O)c2O)ccc(C(C)=O)c1O [1-[2-Hydroxy-4-[4-(2,3-dihydroxyphenyl)butoxy]-3-propylphenyl]ethanone]	1/5	12%	46 ± 7%	89 ± 11%						
CCCc1c(OCCCCCCc2ccc(C(C)C)c(O)c2O)ccc(C(C)=O)c1O [1-[2-hydroxy-4 [6-[2,3 dihydroxy-4-(1-methylethyl)phenyl]hexyloxy]-3 propylphenyl]ethanone]	2/5	11%	65 ± 10%							
CCCc1c(OCCCCCCc2cccc(O)c2O)ccc(C(C)=O)c1O [1-[2-hydroxy-4-[6-(2,3-dihydroxyphenyl)hexyloxy]-3-propylphenyl]ethanone]	4/4	24%			21%					
CCCc1c(OCCCc2ccc(O)c(O)c2)ccc(C(=O)O)c1O [4-[3-(3,4-Dihydroxyphenyl)propoxy]-2-hydroxy-3-propylbenzoic acid]				39 ± 5%	32%					
CCCc1c(OCCCCc2cccc(O)c2O)ccc(C(=O)O)c1O [4-[4-(2,3-dihydroxyphenyl)butoxy]-2-hydroxy-3-propylbenzoic acid]	2/5	8%	73 ± 10%	71 ± 11%	17%					
CCCc1c(OCCCCCc2cccc(O)c2O)ccc(C(=O)O)c1O [4-[5-(2,3-Dihydroxyphenyl)pentyloxy]-2-hydroxy-3-propylbenzoic acid]	4/5	15%			0%	96 ± 13%				
CCCc1c(OCCCCCCc2cccc(O)c2O)ccc(C(=O)OCC)c1O [4-[6-(2,3-Dihydroxyphenyl)hexyloxy]-2-hydroxy-3-propylbenzoic acid ethyl ester]					64%	40 ± 9%	67 ± 11%			
CCCc1c(OCCCCCCc2cccc(O)c2O)ccc(C(=O)O)c1O [4-[6-(2,3-Dihydroxyphenyl)hexyloxy]-2-hydroxy-3-propylbenzoic acid]	4/5	8%	42 ± 2%	67 ± 15%	46%					
O=C(O)c1ccc(OCCCCCCc2cccc(O)c2O)cc1O [4-[6-(2,3-Dihydroxyphenyl)hexyloxy]-2-hydroxybenzoic acid]	3/5	10%			50%	82 ± 9%	81 ± 15%			
O=C(O)c1ccc(OCCCCCCc2cccc(O)c2O)cc1 [4-[6-(2,3-Dihydroxyphenyl)hexyloxy]benzoic acid]	2/5	19%	89 ± 28%		48%		79 ± 8%			
CCCc1c(OCCCCCCc2ccc(O)c(O)c2)ccc(C(=O)O)c1O [4-[6-(3,4-dihydroxyphenyl)hexyloxy]-2-hydroxy-3-propylbenzoic acid]					21%			1/5	11%	
CCCc1c(OCCCCCCc2ccc(C(C)C)c(O)c2O)ccc(C(=O)O)c1O [4-[6-[2,3-dihydroxy-4-(1-methylethyl)phenyl]hexyloxy]-2-hydroxy-3-propylbenzoic acid]	1/5	5%	53 ± 12%		45%					86 ± 9%
CCCc1c(OCCCCCCCc2cccc(O)c2O)ccc(C(=O)O)c1O [4-[7-(2,3-dihydroxyphenyl)heptyloxy]-2-hydroxy-3-propylbenzoic acid]	3/5	18%			57%					
CCCc1c(OCCCCCCCCc2cccc(O)c2O)ccc(C(=O)O)c1O [4-[8-(2,3-dihydroxyphenyl)octyloxy]-2-hydroxy-3-propylbenzoic acid]	1/5	8%	35 ± 7%		78%					27 ± 3%
CCCc1c(OCCCCCCCCCCc2cccc(O)c2O)ccc(C(=O)O)c1O [4-[10-(2,3-dihydroxyphenyl)decyloxy]-2-hydroxy-3-propylbenzoic acid]	3/3	13%			49%					
CCCc1c(O)c(C(=O)O)cc(Cl)c1OCCCCCCc1cccc(O)c1O [5-Chloro-2-hydroxy-4-[6-(2,3-dihydroxyphenyl]hexyloxy]-3-propylbenzoic acid]				44 ± 6%	51%					
